Measured values as given in patent US7875727B2, “Benzimidazole vascular damaging agents” (Angiogene Pharmaceuticals Ltd., priority 1999, dated 2011).

Tests used:
[1] = test system: tumour vasculature in CaNT tumour-bearing mice; test: Activity against tumour vasculature measured by fluorescent dye (Hoechst 33342 functional vascular volume); type: in vivo; details: compared to control
From the text: Activity Against Tumour Vasculature Measured by Fluorescent Dye.
One minute later, animals were killed and tumours excised and frozen; 10 μm sections were cut at 3 different levels and observed under UV illumination using an Olympus microscope equipped with epifluorescence. […] All estimates were based on counting a minimum of 100 fields from sections cut at the 3 different levels. Results are expressed as percentage reduction in vascular volume compared to control.

vasculature = details: administered at the MTD; cited from earlier work
[2] = 50 mg/kg i.p., 24 h after drug treatment
[3] = 500 mg/kg i.p., 6 h after drug treatment

| Structure (SMILES) | % Reduction in vascular volume [1, 2] [%] | further results |
| --- | --- | --- |
| COC(=O)Nc1nc2cc(Sc3ccc(NC(=O)[C@H](C)N)cc3)ccc2[nH]1 [Example 5, Methyl [5(6)-(4-alanylaminophenylthio)-IH-benzimidazol-2yl]carbamate] | 99 | – |
| CC(=O)O[C@@]12CO[C@@H]1C[C@H](O)[C@@]1(C)C(=O)[C@H](O)C3=C(C)[C@@H](OC(=O)[C@H](O)[C@@H](NC(=O)OC(C)(C)C)c4ccccc4)C[C@@](O)([C@@H](OC(=O)c4ccccc4)[C@H]21)C3(C)C [docetaxel] | – | vascular-damaging activity (vasculature): no vascular-damaging activity |
| COC(=O)Nc1nc2cc(Oc3cccc(N)c3)ccc2[nH]1 [Example 18, Methyl [5(6)-(3-aminophenoxy)-1H-benzimidazol-2yl]carbamate] | 47 | – |
| COC(=O)Nc1nc2cc(Oc3ccc(OP(=O)(O)O)cc3)ccc2[nH]1 [Example 14, Methyl [5(6)-(4-phosphonooxyphenoxy)-1H-benzimidazol-2yl]carbamate] | 39 | – |
| COC(=O)Nc1nc2cc(Sc3ccc(O)cc3)ccc2[nH]1 [Example 12, Methyl [5(6)-(4-hydroxyphenylthio)-1H-benzimidazol-2yl]carbamate] | 51 | – |
| CCCSc1ccc2[nH]c(NC(=O)OC)nc2c1 [Albendazole, reference compound] | – | % Reduction in vascular volume [1, 3]: 51% |
| COC(=O)Nc1nc2cc(C(=O)c3ccccc3)ccc2[nH]1 [Mebendazole, reference compound] | – | % Reduction in vascular volume [1, 3]: 56% |
| COC(=O)Nc1nc2cc(Oc3ccc(O)cc3)ccc2[nH]1 [Example 19, Methyl [5(6)-(4-hydroxyphenoxy)-1H-benzimidazol-2yl]carbamate] | 88 | – |
| CCCOc1ccc2[nH]c(NC(=O)OC)nc2c1 [Oxibendazole, reference compound] | – | % Reduction in vascular volume ([1]; 100 mg/kg i.p., 6 h after drug treatment): 43% |
| COC(=O)Nc1nc2cc(C(=O)c3cccs3)ccc2[nH]1 [Nocodazole, reference compound] | – | % Reduction in vascular volume ([1]; 100 mg/kg i.p., 24 h after drug treatment): 23% |
| COC(=O)Nc1nc2cc(Oc3ccc(N)cc3)ccc2[nH]1 [Example 17, Methyl [5(6)-(4-aminophenoxy)-1H-benzimidazol-2yl]carbamate] | 62 | – |
| COC(=O)Nc1nc2cc(C(=NO)c3ccc(O)cc3)ccc2[nH]1 [Example 15, Methyl [5(6)-(4-hydroxy-@-hydroxyiminobenzyl)-1H-benzimidazol-2yl]carbamate] | 61 | – |
| COC(=O)Nc1nc2cc(Oc3ccccc3O)ccc2[nH]1 [Example 20, Methyl [5(6)-(2-hydroxyphenoxy)-1H-benzimidazol-2yl]carbamate] | 69 | – |
| COC(=O)Nc1nc2cc(C(=O)c3ccc(OP(=O)(O)O)cc3)ccc2[nH]1 [Example 2, Methyl [5(6)-(4-phosphonooxybenzoyl)-1H-benzimidazol-2yl]carbamate] | – | % Reduction in vascular volume [1, 3]: 80% |
| COC(=O)Nc1nc2cc(Oc3ccc(NC(C)=O)cc3)ccc2[nH]1 [Example 16, Methyl [5(6)-(4-(acetylamino)phenoxy)-1H-benzimidazol-2yl]carbamate] | 56 | – |
| COC(=O)Nc1nc2cc(Sc3ccc(OP(=O)(O)O)cc3)ccc2[nH]1 [Example 3, Methyl [5(6)-(4-phosphonooxyphenylthio)-IH-benzimidazol-2yl]carbamate] | 22 | – |
| COC(=O)Nc1nc2cc(C(=O)c3ccc(O)cc3)ccc2[nH]1 [Example 1, Methyl [5(6)-(4-hydroxybenzoyl)-IH-benzimidazol-2vl]carbamate] | – | % Reduction in vascular volume [1, 3]: 81% |
| COC(=O)Nc1nc2cc(Sc3ccccc3)ccc2[nH]1 [Fenbendazole, reference compound] | – | % Reduction in vascular volume [1, 3]: 44% |
| COC(=O)Nc1nc2cc(Oc3cccc(O)c3)ccc2[nH]1 [Example 21, Methyl [5(6)-(3-hydroxyphenoxy)-1H-benzimxdazol-2yl]carbamate] | 74 | – |
| COC(=O)Nc1nc2cc(Sc3ccc(N)cc3)ccc2[nH]1 [Example 4, Methyl [5(6)-(4-aminophenylthio)-1H-benzimidazol-2yl]carbamate] | 53 | – |
